Measured values from ChEMBL document CHEMBL3774345, “Synthesis of new diarylamides with pyrimidinyl pyridine scaffold and evaluation of their anti-proliferative effect on cancer cell lines” (Bioorg Med Chem Lett, 2016).

How the values were obtained:
A498 = test: Cytotoxicity against human A498 cells assessed as cell growth at 10^-8 M after 24 hrs by SRB assay; format: functional; settings: A498, 24 h, read-out: Activity
MDA-MB-231 [1] = test: Cytotoxicity against human MDA-MB-231 cells assessed as cell growth at 10^-8 M after 24 hrs by SRB assay; format: functional; settings: MDA-MB-231, 24 h, read-out: Activity
[2] = Cytotoxicity against human Hs 578T cells assessed as cell growth at 10^-8 M after 24 hrs by SRB assay; format: functional; settings: read-out: Activity
A549 = test: Cytotoxicity against human A549 cells assessed as cell growth at 10^-4 M after 24 hrs by SRB assay; format: functional; settings: A549, 24 h, read-out: Activity
786-0 [3] = test: Cytotoxicity against human 786-0 cells assessed as cell growth at 10^-7 M after 24 hrs by SRB assay; format: functional; settings: 786-0, 24 h, read-out: Activity
[4] = Cytotoxicity against human HCT116 cells after 24 hrs by SRB assay; format: functional; settings: HCT-116, 24 h
NCI-H23 = test: Cytotoxicity against human NCI-H23 cells assessed as cell growth at 10^-4 M after 24 hrs by SRB assay; format: functional; settings: NCI-H23, 24 h, read-out: Activity
NCI-H322M = test: Cytotoxicity against human NCI-H322M cells assessed as cell growth at 10^-4 M after 24 hrs by SRB assay; format: functional; settings: read-out: Activity
[5] = Cytotoxicity against human COLO205 cells assessed as cell growth at 10^-4 M after 24 hrs by SRB assay; format: functional; settings: COLO 205, 24 h, read-out: Activity
MDA-MB-435 = test: Cytotoxicity against human MDA-MB-435 cells after 24 hrs by SRB assay; format: functional, cell-based; settings: MDA-MB-435, 24 h
T47D = test: Cytotoxicity against human T47D cells assessed as cell growth at 10^-7 M after 24 hrs by SRB assay; format: functional; settings: read-out: Activity
[6] = Cytotoxicity against human MOLT4 cells assessed as cell growth at 10^-6 M after 24 hrs by SRB assay; format: functional; settings: MOLT-4, 24 h, read-out: Activity
SK-MEL-2 = test: Cytotoxicity against human SK-MEL-2 cells assessed as cell growth at 10^-4 M after 24 hrs by SRB assay; format: functional; settings: SK-MEL-2, 24 h, read-out: Activity
[7] = Cytotoxicity against human OVCAR8 cells assessed as cell growth at 10^-4 M after 24 hrs by SRB assay; format: functional; settings: OVCAR-8, 24 h, read-out: Activity
[8] = Cytotoxicity against human NCI-ADR-RES cells assessed as cell growth at 10^-4 M after 24 hrs by SRB assay; format: functional; settings: read-out: Activity
[9] = Cytotoxicity against human TK10 cells assessed as cell growth at 10^-4 M after 24 hrs by SRB assay; format: functional; settings: TK-10, 24 h, read-out: Activity
M14 = test: Cytotoxicity against human M14 cells assessed as cell growth at 10^-6 M after 24 hrs by SRB assay; format: functional; settings: M14, 24 h, read-out: Activity
[10] = Cytotoxicity against human SKOV3 cells assessed as cell growth at 10^-6 M after 24 hrs by SRB assay; format: functional; settings: SK-OV-3, 24 h, read-out: Activity
MCF7 = test: Cytotoxicity against human MCF7 cells assessed as cell growth at 10^-6 M after 24 hrs by SRB assay; format: functional; settings: MCF7, 24 h, read-out: Activity
[11] = Cytotoxicity against human OVCAR3 cells after 24 hrs by SRB assay; format: functional; settings: OVCAR-3, 24 h
786-0 [12] = test: Cytotoxicity against human 786-0 cells after 24 hrs by SRB assay; format: functional, cell-based; settings: 786-0, 24 h
SR [13] = test: Cytotoxicity against human SR cells after 24 hrs by SRB assay; format: functional
CCRF-CEM = test: Cytotoxicity against human CCRF-CEM cells after 24 hrs by SRB assay; format: functional
SR [14] = test: Cytotoxicity against human SR cells assessed as cell growth at 10^-8 M after 24 hrs by SRB assay; format: functional; settings: read-out: Activity
[15] = Cytotoxicity against human SNB19 cells assessed as cell growth at 10^-8 M after 24 hrs by SRB assay; format: functional; settings: SNB-19, 24 h, read-out: Activity
[16] = Cytotoxicity against human IGROV1 cells assessed as cell growth at 10^-8 M after 24 hrs by SRB assay; format: functional; settings: IGROV-1, 24 h, read-out: Activity
K562 = test: Cytotoxicity against human K562 cells assessed as cell growth at 10^-5 M after 24 hrs by SRB assay; format: functional; settings: K562, 24 h, read-out: Activity
[17] = Cytotoxicity against human MOLT4 cells assessed as cell growth at 10^-5 M after 24 hrs by SRB assay; format: functional; settings: MOLT-4, 24 h, read-out: Activity
[18] = Cytotoxicity against human HOP92 cells assessed as cell growth at 10^-5 M after 24 hrs by SRB assay; format: functional; settings: HOP-92, 24 h, read-out: Activity
[19] = Cytotoxicity against human HCT15 cells assessed as cell growth at 10^-5 M after 24 hrs by SRB assay; format: functional; settings: HCT-15, 24 h, read-out: Activity
HT-29 = test: Cytotoxicity against human HT-29 cells assessed as cell growth at 10^-5 M after 24 hrs by SRB assay; format: functional; settings: HT-29, 24 h, read-out: Activity
[20] = Cytotoxicity against human SW620 cells assessed as cell growth at 10^-5 M after 24 hrs by SRB assay; format: functional; settings: SW-620, 24 h, read-out: Activity
[21] = Cytotoxicity against human SF539 cells assessed as cell growth at 10^-5 M after 24 hrs by SRB assay; format: functional; settings: SF-539, 24 h, read-out: Activity
[22] = Cytotoxicity against human SKOV3 cells assessed as cell growth at 10^-5 M after 24 hrs by SRB assay; format: functional; settings: SK-OV-3, 24 h, read-out: Activity
MDA-MB-231 [23] = test: Cytotoxicity against human MDA-MB-231 cells assessed as cell growth at 10^-5 M after 24 hrs by SRB assay; format: functional; settings: MDA-MB-231, 24 h, read-out: Activity
[24] = read-out: LC50 (the source's name)
[25] = read-out: pLC50 (the source's name) (converted)

SMILES: O=C(Nc1cc(-c2cccnc2)nc(NCCCN2CCOCC2)n1)c1cc(Br)cc(C(F)(F)F)c1
- growth at 0.01 µM (A498): 91%
- growth at 0.01 µM (MDA-MB-231 [1]): 90%
- growth at 0.01 µM [2]: 93%
- growth at 100 µM (A549): -95%
- growth at 0.1 µM (786-0 [3]): 91%
- GI50 ([4]; read-out: GI50): 2.09 µM
- CC50 [4, 24]: 13.7 µM
- TGI ([4]; read-out: TGI): 4.81 µM
- GI50 ([4]; read-out: pGI50 (converted)): 2.09 µM
- CC50 [4, 25]: 13.8 µM
- TGI ([4]; read-out: pTGI (converted)): 4.79 µM
- growth at 100 µM (NCI-H23): -85%
- growth at 100 µM (NCI-H322M): -90%
- growth at 100 µM [5]: -88%
- IC50 (MDA-MB-435): 1.66 µM
- GI50 (MDA-MB-435; read-out: GI50): 1.66 µM
- CC50 (MDA-MB-435; [24]): 5.98 µM
- TGI (MDA-MB-435; read-out: TGI): 3.15 µM
- GI50 (MDA-MB-435; read-out: pGI50 (converted)): 1.66 µM
- CC50 (MDA-MB-435; [25]): 6.03 µM
- TGI (MDA-MB-435; read-out: pTGI (converted)): 3.16 µM
- growth at 0.1 µM (T47D): 91%
- growth at 1 µM [6]: 102%
- growth at 100 µM (SK-MEL-2): -89%
- growth at 100 µM [7]: -79%
- growth at 100 µM [8]: -77%
- growth at 100 µM [9]: -98%
- growth at 1 µM (M14): 87%
- growth at 1 µM [10]: 97%
- growth at 1 µM (MCF7): 77%
- GI50 ([11]; read-out: GI50): 3.7 µM
- CC50 [11, 24]: 35.8 µM
- TGI ([11]; read-out: TGI): 12.8 µM
- GI50 ([11]; read-out: pGI50 (converted)): 3.72 µM
- CC50 [11, 25]: 35.5 µM
- TGI ([11]; read-out: pTGI (converted)): 12.9 µM
- IC50 (786-0 [12]): 1.55 µM
- GI50 (786-0 [12]; read-out: GI50): 1.55 µM
- CC50 (786-0 [12]; [24]): 6.47 µM
- TGI (786-0 [12]; read-out: TGI): 3.17 µM
- GI50 (786-0 [12]; read-out: pGI50 (converted)): 1.55 µM
- CC50 (786-0 [12]; [25]): 6.46 µM
- TGI (786-0 [12]; read-out: pTGI (converted)): 3.16 µM
- GI50 (SR [13]; read-out: GI50): 2.6 µM
- CC50 (SR [13]; [24]): > 100 µM
- TGI (SR [13]; read-out: TGI): 41.7 µM
- GI50 (SR [13]; read-out: pGI50 (converted)): 2.63 µM
- CC50 (SR [13]; [25]): > 100 µM
- TGI (SR [13]; read-out: pTGI (converted)): 41.7 µM
- GI50 (CCRF-CEM; read-out: GI50): 3.54 µM
- CC50 (CCRF-CEM; [24]): 93.4 µM
- TGI (CCRF-CEM; read-out: TGI): 12.9 µM
- GI50 (CCRF-CEM; read-out: pGI50 (converted)): 3.55 µM
- CC50 (CCRF-CEM; [25]): 93.3 µM
- TGI (CCRF-CEM; read-out: pTGI (converted)): 12.9 µM
- growth at 0.01 µM (SR [14]): 106%
- growth at 0.01 µM [15]: 97%
- growth at 0.01 µM [16]: 103%
- growth at 10 µM (K562): 4%
- growth at 10 µM [17]: 9%
- growth at 10 µM [18]: -10%
- growth at 10 µM [19]: -32%
- growth at 10 µM (HT-29): -41%
- growth at 10 µM [20]: -34%
- growth at 10 µM [21]: -73%
- growth at 10 µM [22]: 42%
- growth at 10 µM (MDA-MB-231 [23]): -59%
